{"source": "patent US7554012B2", "about": "“Plants and plant cells exhibiting resistance to AMPA, and methods for making the same” (priority 1998, dated 2009)", "key": {"Tobacco callus": {"tested_on": "Tobacco callus", "assay": "Tobacco callus growth on plates with AMPA or N-acetyl AMPA", "format": "cell-based, Nicotiana tabacum cv. \"Samsun\"", "conditions": "plates with 0.1 mM or 0.4 mM, up to three weeks", "description": "Tobacco callus was generated from leaf pieces of wild type Nicotiana tabacum cv. “Samsun” tobacco on MS104 plates (MS salts 4.3 g/l, sucrose 30 g/l, B5 vitamins 500X 2 ml/l, NAA 0.1 mg/l, and Bacto Agar […]). Callus tissue was applied to plates with or without AMPA and with or without N-acetyl AMPA. Plates contained AMPA or N-acetyl AMPA at concentrations of 0.1 mM or 0.4 mM. Plates were incubated for up to three weeks and monitored periodically."}, "[1]": {"tested_on": "wild type Coker 312 plants", "assay": "AMPA spray on cotton plants", "format": "in vivo, cotton (Gossypium hirsutum L.)", "description": "Previously identified plants transformed with a double gene glyphosate resistance cassette comprised of EPSPS and GOX encoding genes were determined to be resistant to glyphosate when applied at 48 ounces per acre through the 6-7 leaf stage, however severe bleaching of the leaves was observed. This phytotoxic effect was presumed to be due to the formation of AMPA as a result of GOX mediated glyphosate degradation. To test this, AMPA was sprayed at three different rates onto wild type Coker 312 plants. […] To test this, cotton plants expressing GOX or GOX plus EPSPS alone or in combination with PhnO expression were treated with [^14C]-glyphosate, and the metabolism of the isotope labeled glyphosate was monitored in leaf tissue seven days after application."}, "E. coli JM101": {"tested_on": "E. coli JM101", "assay": "Cell growth in MOPS medium with AMPA", "format": "cell-based", "design": "key: — indicates no measurable growth", "conditions": "0.2 mM AMPA, growth period 54 hrs", "description": "The phn operon is induced when E. coli is grown in media lacking or limited in a phosphate source. Therefore, E. coli GB993 was compared to the parental JM101 strain when grown in MOPS minimal media. GB993 and its mpu− parent strain, JM101, were grown under identical conditions, varying only the amount of phosphate available or supplemented with AMPA. 50 ml cultures were grown in duplicate in 250 ml sidearm-Erlenmeyer flasks with continuous shaking at 37° C. in MOPS medium (5 mls of 10×MOPS salts, 0.5 ml 1 mg/ml thiamin, 0.5 ml 20% glucose, to 50 mls with dH2O) containing 0.1 or 5 mM phosphate, or 0.1 mM phosphate supplemented with approximately 0.2 mM AMPA, pH 7.0. The cultures were generally grown to about 220 Klett units and the cells were pelleted by centrifugation, resuspended in 1.5 mls of 10 mM Tris/1 mM DTT, and lysed with two passes through a French press at […]. Lysates were centrifuged to remove debris and the supernatant passed through a G-50 column equilibrated with 50 mM Tris pH 7.0."}, "[2]": {"tested_on": "recombinant cotton line 4268 (GOX/PhnO)", "assay": "[^14C]-glyphosate metabolism in cotton line 4268", "format": "in vivo, cotton (Gossypium hirsutum L.)", "conditions": "GOX/PhnO Plants", "description": "The metabolism of [^14C]-glyphosate in recombinant cotton lines 4268 (GOX/PhnO) and 3753 (EPSPS/GOX) was also studied. Plants in this study were treated as indicated above for cotton line 4416, by applying droplets of ROUNDUP ULTRA fortified with [^14C]-glyphosate to a single leaf on each plant at the three to four leaf stage. Treated leaves were harvested and rinsed with water, then ground and extracted, and extracts were analyzed by HPLC as described above for the presence of [^14C]-glyphosate, [^14C]-AMPA, and N-acetyl-[^14C]-AMPA. New growth, including the meristem and new leaves that emerged following application were also extracted and analyzed."}, "[3]": {"tested_on": "tobacco lines 33476, 36779, 37235", "assay": "[^14C]-glyphosate metabolism in R1 tobacco plants", "format": "in vivo", "source_text": "Seed from Ro transformation events were obtained after self crossing in growth chamber conditions. Ro seed were cured and planted to generate R1 progeny. Source leaves of R1 progeny at the five leaf stage were exposed to [^14C]-glyphosate by spotting a 2 microliter sample onto each vein (50 microliters of [^14C]-glyphosate Na+ salt, 517,000 dpm/microgram, 0.42 microgram/microliter mixed with 10 microliters of glycerol). Each leaf received several spots depending on the number of veins on that leaf. Three days later 15 additional 2 microliter spots were applied to each leaf. Two weeks later, five 2 microliter spots were applied to each of two leaves on each plant. These were new leaves and were not the older leaves to which glyphosate was initially applied. Five days after this last application, about 300 milligrams of tissue was sampled from two sink leaves on each plant. The samples from each plant were homogenized in separate 1 ml volumes of deionized water, centrifuged at 9,000 RPM in a microcentrifuge, and the aqueous volumes were collected and stored on ice. Extracts were analyzed by HPLC for the presence of [^14C] labeled metabolites as in Example 2. […] In addition, the lack of a bleaching effect in line 36779 after exposure to glyphosate is consistent with the presence of functional GOX and PhnO enzymes and the absence of detectable [^14C]-AMPA."}, "[4]": {"tested_on": "R2 glyphosate tolerant wheat plants", "assay": "[^14C]-glyphosate metabolism in wheat plants", "format": "in vivo, Triticum aestivum cv Bobwhite", "experimental": "R2 seed was germinated from a number of different glyphosate tolerant lines to produce R2 glyphosate tolerant plants to which [^14C]-glyphosate was applied as described above. Plant leaf and stem tissues were harvested at 48 hours after glyphosate application, and water soluble compounds were extracted as described above and analyzed by HPLC as in example 2 for the presence of [^14C]-glyphosate metabolites. The total area under the [^14C] isotope labeled peaks eluting from the column was summed to provide a baseline of 100% [^14C]-compound identification for each sample analyzed."}, "male gametes": {"tested_on": "male gametes", "conditions": "under optimal conditions; cited from earlier work"}, "female gametes": {"tested_on": "female gametes", "conditions": "under optimal conditions; cited from earlier work"}, "[5]": {"conditions": "EPSPS + PhnO + GOX, Plant Line 25462"}, "[6]": {"conditions": "EPSPS + PhnO + GOX, Plant Line 26281"}, "[7]": {"conditions": "EPSPS + PhnO + GOX, Plant Line 28598"}, "[8]": {"conditions": "non-recombinant Bobwhite plants"}}, "note": "Where “and” joins values, the source holds several entries; their conditions need not be identical. Identical values can stand only once.", "data": [{"compound": "NCP(=O)(O)O", "note": "[AMPA, N-aminomethyl phosphonic acid]", "values": [{"measurement": "growth of tobacco callus tissue", "setting": "Tobacco callus", "value": "severely inhibited"}, {"measurement": "phytotoxic effect on plants", "setting": "[1]; 64 ounces per acre, eight days post-application", "value": "Leaf chlorosis and stunted growth"}, {"measurement": "phytotoxic effect on plants", "setting": "[1]; 640 ounces per acre, four days post-application", "value": "Leaf chlorosis and stunted growth"}, {"measurement": "Harvest Density", "setting": "E. coli JM101", "value": "—"}]}, {"compound": "N-phosphono-methyl-glycine [Glyphosate]", "values": [{"measurement": "% [^14C] metabolite in Glyphosate Treated Leaf Extract: AMPA", "setting": "[2]; listed as [^14C]-Glyphosate", "value": "3.2% and 5.7% and 3.0% and 4.8%"}, {"measurement": "% [^14C] metabolite in Glyphosate Treated Leaf Extract: Glyphosate", "setting": "[2]; listed as [^14C]-Glyphosate", "value": "54.4% and 58.3% and 76.7% and 63.9%"}, {"measurement": "% [^14C] metabolite in New Growth Extract: AMPA", "setting": "[2]; listed as [^14C]-Glyphosate", "value": "1.2% and 1.0% and 1.5%"}, {"measurement": "% [^14C] metabolite in New Growth Extract: Glyphosate", "setting": "[2]; listed as [^14C]-Glyphosate", "value": "0.8% and 1.1% and 3.4%"}, {"measurement": "% [^14C] metabolite in New Growth Extract: N-Acetyl-AMPA", "setting": "[2]; listed as [^14C]-Glyphosate", "value": "94.7% and 91.0% and 89.9% and 91.5%"}, {"measurement": "% [^14C] metabolite in New Growth Extract: N-Acetyl-AMPA", "setting": "[2]; listed as [^14C]-glyphosate", "value": "90-95%"}, {"measurement": "[^14C] labeled metabolites in sink leaf extract", "setting": "[3]; line 33476 (GOX)", "value": "only [^14C]-AMPA"}, {"measurement": "[^14C] labeled metabolites in sink leaf extract", "setting": "[3]; line 36779", "value": "Only N-acetyl-[^14C]-AMPA"}, {"measurement": "[^14C] labeled metabolites in sink leaf extract", "setting": "[3]; line 37235", "value": "non-metabolized [^14C]-glyphosate as well as a trace but measurable amount of [^14C]-AMPA"}, {"measurement": "Acetyl-[^14C]-AMPA, of summed [^14C] peaks", "setting": "[4]; [5]", "value": 0, "unit": "%"}, {"measurement": "[^14C]-Glyphosate, of summed [^14C] peaks", "setting": "[4]; [5]", "value": "48% and 44% and 54%"}, {"measurement": "Acetyl-[^14C]-AMPA, of summed [^14C] peaks", "setting": "[4]; [6]", "value": "17% and 13% and 7%"}, {"measurement": "[^14C]-AMPA, of summed [^14C] peaks", "setting": "[4]; [6]", "value": "14% and 11% and 7%"}, {"measurement": "[^14C]-Glyphosate, of summed [^14C] peaks", "setting": "[4]; [6]", "value": "48% and 64% and 38%"}, {"measurement": "[^14C]-Glyphosate, of summed [^14C] peaks", "setting": "[4]; EPSPS + PhnO + GOX, Plant Line 27249", "value": "6% and 14% and 5%"}, {"measurement": "Acetyl-[^14C]-AMPA, of summed [^14C] peaks", "setting": "[4]; [7]", "value": 5, "unit": "%"}, {"measurement": "[^14C]-AMPA, of summed [^14C] peaks", "setting": "[4]; [7]", "value": 7, "unit": "%"}, {"measurement": "[^14C]-Glyphosate, of summed [^14C] peaks", "setting": "[4]; [7]", "value": "20% and 25%"}, {"measurement": "[^14C]-Other, of summed [^14C] peaks", "setting": "[4]; [7]", "value": "68% and 63%"}, {"measurement": "Acetyl-[^14C]-AMPA, of summed [^14C] peaks", "setting": "[4]; EPSPS, Plant Line 24756", "value": "1% and 0%"}, {"measurement": "[^14C]-AMPA, of summed [^14C] peaks", "setting": "[4]; EPSPS, Plant Line 24756", "value": "25% and 46%"}, {"measurement": "[^14C]-Glyphosate, of summed [^14C] peaks", "setting": "[4]; EPSPS, Plant Line 24756, 48 hours after application", "value": "43% and 53%"}, {"measurement": "Acetyl-[^14C]-AMPA, of summed [^14C] peaks", "setting": "[4]; EPSPS, Plant Line 25397", "value": "0% and 1.2%"}, {"measurement": "[^14C]-AMPA, of summed [^14C] peaks", "setting": "[4]; EPSPS, Plant Line 25397", "value": "38% and 19% and 20%"}, {"measurement": "[^14C]-Glyphosate, of summed [^14C] peaks", "setting": "[4]; EPSPS, Plant Line 25397", "value": "61% and 37% and 64%"}, {"measurement": "Acetyl-[^14C]-AMPA, of summed [^14C] peaks", "setting": "[4]; [8]", "value": 0, "unit": "%"}, {"measurement": "[^14C]-AMPA, of summed [^14C] peaks", "setting": "[4]; [8]", "value": "26% and 15% and 24%"}, {"measurement": "male gametes killed", "setting": "male gametes", "value": "about 95%"}, {"measurement": "female gametes left capable of fertilization", "setting": "female gametes", "value": "40-60%"}]}]}
